In paper PMC7002685, “Inhibition of vascular calcification by inositol phosphates derivatized with ethylene glycol oligomers” (Nature Communications, 2020):
Values joined by “and” are separate entries in the source; they are usually repeats but may differ in a detail not shown here. Identical values can stand only once. Like-named read-outs stand apart in the source and are kept apart here.

Test: PK i.v. bolus in healthy and adenine/high-phosphate-diet (uremic) rats
Type: in vivo, male Sprague-Dawley rats
Parameters: plasma concentration (Figure 4g): unit not given here
Conditions: for AUC(0-inf) / Cmax / clearance / half-life / AUC(0-t) / MRT last: serum, 10 mg/kg i.v. bolus; for AUC(0-t): read-out: AUC0-240 (converted); for MRT last: read-out: MRT0-240 (converted)
Description: For many drugs, the PK profile depends on the patient’s renal status. Therefore, (OEG2)2-IP4 PK profile was also determined in an adenine and high-phosphate-diet-induced rat model of uremia, in which the compound was administered after serum creatinine levels had increased by fourfold relative to baseline (Fig. 4g, h). […] Similar results were observed following s.c. administration (Supplementary Table 5).
To study PK in uremic animals, male Sprague-Dawley rats (Charles River Laboratories, L’Arbresle, France) were housed two per cage with free access to water and standard chow (rat/mouse maintenance diet, SSNIFF Spezialdiäten GmbH, Soest, Germany) and submitted to a 12-h light/dark cycle. Animals were fed a low-protein (2.5%) diet containing high phosphorus (1.3% phosphorus and 0.7% calcium) and 0.3% adenine to induce uremia (SSNIFF Spezialdiäten GmbH). Control animals were fed same diet but without adenine. Every 10 days, a sample of blood was punctured at the tail vein of each animal. Serum and urine creatinine, calcium, and phosphorus were then assessed using standard colorimetric biochemistry analysis (Cobas Mira, Roche, Basel, Switzerland). When a fourfold increase of creatinine was observed compared to control, the rat was considered uremic and suitable for PK experiments. The method was validated using eight animals on control- and adenine-supplemented diet respectively. For PK studies, on the morning of the experimental day, a catheter was inserted in the right carotid artery under halothane anesthesia. Subsequently, rats were allowed to recover for 3 h and uremic and non-uremic rats, respectively, were assigned to three groups of six rats each. […] Blood aliquots were drawn after drug administration, centrifuged, decanted, and stored at −80 °C until serum drug quantification by LC-MS, as well as analysis of serum creatinine, calcium, and phosphorus (Cobas Mira).
The bioanalytical method for (OEG2)2-IP4 in rat plasma was further optimized, qualified, and applied to the comparative PK study in adenine and high-phosphate diet-induced VC vs. vitamin D-induced VC animals. The LC-MS/MS analyses were carried out using a Dionex Ultimate RSLC ultra-high-pressure liquid chromatography (UHPLC) system (Thermo Fisher Scientific) coupled with a TSQ Quantiva^TM triple quadrupole mass spectrometer. The samples were stored at 5 °C in the autosampler prior to and during the analyses. […] Gradient elution (solvent A, 20 mM ammonium acetate in water (pH 5); solvent B, ACN) was used according to the program reported in Supplementary Table 18. The injection volume was 10 µL. MS/MS parameters (MRM acquisition, cycle time 0.2 s) for (OEG2)2-IP4 are reported in Supplementary Table 19 and the ESI source, working in negative ionization mode, applied the following parameters: static spray voltage 3000 V ion transfer tube and vaporizer temperatures at 400 and 100 °C, respectively; sheath and auxiliary gas (nitrogen) flow rates at 80 and 3 (arbitrary units). For the quantitative determination in rat plasma, product ion m/z 158.9 was selected because it provided the best sensitivity and selectivity. Calibration curve and quality control samples were prepared by adding 2 μL of working solution to 38 μL rat blank K3EDTA plasma (Biochemed, Winchester, VA) and precipitating plasma protein by addition of 120 μL of MeOH including internal standard OEG11-IP5. Samples were vortexed 1 min and centrifuged at (22,000 × g, 4 °C, 10 min). Supernatants (90 μL) were then transferred into a glass vial with insert and injected onto LC-MS/MS system. Both in adenine and high-phosphate diet-induced VC and vitamin D-induced VC rat PK samples were prepared for analysis in an analogous manner as done for spiked samples (assay volume 40 μL). The LLOQ and LOD in rat plasma for (OEG2)2-IP4 were 50 and 10 ng/mL, respectively. The ULOQ and detection was 50,000 ng/mL.

[1] = male, Sprague-Dawley, rat, iv, 10 mg/kg, Healthy
[2] = male, Sprague-Dawley, rat, iv, 10 mg/kg, Uremic

With `COCCOCCO[C@@H]1[C@@H](OP(=O)(O)O)[C@H](OCCOCCOC)[C@@H](OP(=O)(O)O)[C@@H](OP(=O)(O)O)[C@H]1OP(=O)(O)O` [(OEG2)2-IP4, 4,6-Di-O-(methoxy-diethyleneglycol)-myo-inositol-1,2,3,5-tetrakis(phosphate)] the “fold longer t1/2 in uremic rats” value (10 mg/kg i.v.) was 1.6 fold, the “plasma concentration (Figure 4g)” value (Healthy, i.v., Time 5 min, individual rats) was 34.3554 and 28.9453 and 26.4893 and 36.6347 and 33.1433 and the “plasma concentration (Figure 4g)” value (Healthy, i.v., Time 0.25 h, individual rats) was 30.5208 and 13.9972 and 12.439 and 10.9827 and 13.2633 and 11.7166. For the same molecule, the “plasma concentration (Figure 4g)” value (Healthy, i.v., Time 0.5 h, individual rats) was 27.5306 and 9.488 and 4.56 and 3.6178 and 4.794 and 4.014, the “plasma concentration (Figure 4g)” value (Healthy, i.v., Time 1 h, individual rats) was 9.6556 and 4.29 and 0.6765 and 0.5745 and 0.5328 and 0.7985 and the “plasma concentration (Figure 4g)” value (Healthy, i.v., Time 2 h, individual rats) was 7.991 and 1.14 and 0.125 and 0.07468 and 0.07899 and 0.1206. The “plasma concentration (Figure 4g)” value (Healthy, i.v., Time 3 h, individual rats) was 3.3004 and 0.5084 and 0.05745 and 0.03303 and 0.0316 and 0.04883, the “plasma concentration (Figure 4g)” value (Healthy, i.v., Time 4 h, individual rats) was 2.7015 and 0.1767 and 0.01436 and 0.02585 and 0.02298 and 0.0316 and the “plasma concentration (Figure 4g)” value (Uremic, i.v., Time 5 min, individual rats) was 32.8173 and 29.5312 and 43.7899 and 28.895 and 62.6472 and 41.0266. For the same molecule, the “plasma concentration (Figure 4g)” value (Uremic, i.v., Time 10 min, individual rats) was 43.2182 and 28.9366, the “plasma concentration (Figure 4g)” value (Uremic, i.v., Time 0.25 h, individual rats) was 27.5292 and 20.3309 and 31.0464 and 22.8615 and the “plasma concentration (Figure 4g)” value (Uremic, i.v., Time 0.5 h, individual rats) was 20.0681 and 12.3154 and 17.5978 and 17.7285. The “plasma concentration (Figure 4g)” value (Uremic, i.v., Time 1 h, individual rats) was 13.305 and 19.9618 and 12.7047 and 6.171 and 9.641 and 11.83, the “plasma concentration (Figure 4g)” value (Uremic, i.v., Time 1.5 h, individual rats) was 9.875 and 10.075 and the “plasma concentration (Figure 4g)” value (Uremic, i.v., Time 2 h, individual rats) was 4.81 and 2.841 and 7.088 and 3.03 and 4.689 and 9.284. The “plasma concentration (Figure 4g)” value (Uremic, i.v., Time 3 h, individual rats) was 1.893 and 4.314 and 1.879 and 2.2534, the “plasma concentration (Figure 4g)” value (Uremic, i.v., Time 4 h, individual rats) was 1.159 and 0.6736 and 3.1697 and 1.081 and 1.337 and the concentration at 5 min (male, Sprague-Dawley, rat, plasma, iv, 10 mg/kg, Healthy, i.v., Time 5 min, individual rats, read-out: plasma concentration (Figure 4g)) was 51.8 µM. For the same molecule, the concentration at 10 min (male, Sprague-Dawley, rat, plasma, iv, 10 mg/kg, Healthy, i.v., Time 10 min, individual rats, read-out: plasma concentration (Figure 4g)) was 36.1 µM, the concentration at 10 min (male, Sprague-Dawley, rat, plasma, iv, 10 mg/kg, Uremic, i.v., Time 10 min, individual rats, read-out: plasma concentration (Figure 4g)) was 46 µM and the concentration at 0.25 h (male, Sprague-Dawley, rat, plasma, iv, 10 mg/kg, Uremic, i.v., Time 0.25 h, individual rats, read-out: plasma concentration (Figure 4g)) was 27.7 µM. For the same molecule, the concentration at 0.5 h (male, Sprague-Dawley, rat, plasma, iv, 10 mg/kg, Uremic, i.v., Time 0.5 h, individual rats, read-out: plasma concentration (Figure 4g)) was 19 µM, the concentration at 1.5 h (male, Sprague-Dawley, rat, plasma, iv, 10 mg/kg, Uremic, i.v., Time 1.5 h, individual rats, read-out: plasma concentration (Figure 4g)) was 7.2 µM and the AUC(0-inf) [1] was 18.5 µM·h. The Cmax [1] was 35 ± 9 µM, the clearance [1] was 17.9 ± 7.7 mL/min/kg and the half-life [1] was 52 ± 14 min. The AUC(0-t) [1] was 17.8 µM·h, the MRT last [1] was 26 min and the AUC(0-inf) [2] was 45.6 µM·h. It also gave a Cmax [2] of 43 ± 12 µM, a clearance [2] of 5.8 ± 2 mL/min/kg and a half-life [2] of 83 ± 47 min. It also gave an AUC(0-t) [2] of 37 µM·h and an MRT last [2] of 53 min.
